Like-named read-outs stand apart in the source and are kept apart here.
Assays:
Type in all cases: cell-based, human
ARPE-19 cells = experiment: Oxidant cytotoxicity (MTT viability, median effect analysis) and protection by 24 h sulforaphane pretreatment; details: for EC50: Homo sapiens
Method: (§1) All experiments were performed in 96-well microliter plates. ARPE-19 and HaCaT cells were seeded at 10,000 cells per well and grown for 24 h before addition of sulforaphane, whereas L1210 cells (5,000 cells/well) were not incubated before sulforaphane treatment. Solutions of sulforaphane (5 mM) in dimethyl sulfoxide were diluted with the cognate culture medium to provide final inducer concentrations of 0.16-5.0 μM. The final DMSO concentrations were 0.1% by volume.
Tert-Butyl hydroperoxide (1 M) and 4-hydroxynonenal (25 mM) were dissolved in DMSO and diluted 1000-fold with serum-free medium before addition of serial dilutions to the microtiter plate wells. The final concentrations of DMSO were therefore less than 0.1% (by vol.). Menadione sodium bisulfite (0.5 M) and SIN-1 (0.5 M) were dissolved and added in PBS. ARPE-19 cells were exposed to menadione for 2 h and to tert-butyl hydroperoxide for 16 h, washed with PBS, and cell viability was determined by the MIT test. ARPE-19 cells were exposed to peroxynitrite for 2 h and 4-hydroxynonenal for 4 h, and the cells were then incubated in serum-free media for 22 and 20 h, respectively, washed with PBS, and cell viability was determined. The additional incubation periods were required for peroxynitrite and 4-hydroxynonenal to evoke maximal cytotoxicity.
(§2) Cell viability was determined by spectroscopic measurement of the reduction of MTT (Carmichael, J., DeGraff, W. G., Gazdar, A. F., Minna, J. D. & Mitchell, J. B. (1987) Cancer Res. 47, 936-942). The culture media were discarded after the designated incubation periods, the cells were washed three times with PBS by use of a microtiter plate washer (Ultrawash Plus, Dynex Technologies, Chantilly, Va.). Each well then received 150 μl of an MTT solution (0.5 mg/ml) in serum-free medium. The plates were incubated for 2 h at 37° C., the MTT solution was discarded, 100 μl of DMSO were added to each well, and the plates were shaken at 200 rpm on an orbital shaker for 5 min. The absorbances of the wells were determined at 555 nm with a microtiter plate reader (Spectra Max Plus, Molecular Devices, Sunnyvale, Calif.). The absorbance of reduced MIT was then compared at each inducer and oxidant concentration to that of untreated control cells that received only the vehicle in which sulforaphane (DMSO) and menadione (DMSO or PBS) were dissolved. In each experiment three identical 96-well plates were used and the means of the absorbance values, the standard deviations of these means, and their coefficients of variation were calculated.
(§3) Dose-effect analyses were performed according to the Median Effect Equation, by use of a computer program (Chou, T. C. & Hayball, M. (1996) CalcuSyn for Windows 3.1 and 95: multiple dose effect analyzer and manual for IBM-PC, Biosoft, Cambridge, U.K). The equation: fa/fu=[D/Dm]^m, where fa is the fraction of cells affected by the oxidant, fu is the fraction unaffected (i.e., 1-fa), D is the dose of oxidant required to produce the effect fa, Dm is the concentration of oxidant required to produce a 50% effect, i.e., when fa=fu, and the slope m is a measure of the sigmoidicity of the dose-response curve, and is therefore a measure of cooperativity. The results are analyzed by plotting log(fa/fu) with respect to log D of the oxidant. The computer program provides the slope (m) of the curves, and the goodness of fit (r^2) to linearity.

[1] = test system: Retina Pigment Epithelium Cell; experiment: Photooxidative damage by all-trans-retinal and 365 nm light, protection by sulforaphane (cell survival); details: sulforaphane 0.00 μM
Method: There is accumulating evidence that chronic exposure to sunlight plays a role in some degenerative diseases, for instance, age-related macular degeneration (AMD). We have, therefore, carried out an experiment of protection of human RPE cells against photooxidative damage mediated by all-trans-retinal, which exists in human retina and is a critical component of the visual cycle.
as §2
To examine the protective effect of sulforaphane against photooxidative damage mediated by all-trans-retinal and light exposure, the cells were treated with 0-100 μM of all-trans-retinal for 2 hours and light exposure at 365 nm for 20 min after incubation with 0-5 μM of sulforaphane for 24 hours.

HaCaT cells = experiment: tert-Butyl hydroperoxide cytotoxicity (MTT, median effect analysis) and protection by sulforaphane
Method: Mouse L1210 leukemia cells, a gift from Dr. Joseph G. Cory, East Carolina State University, Greenville, N.C., were grown in RPMI 1640 medium supplemented with 10% horse serum. All cultures were incubated in a humidified atmosphere of 5% CO2 at 37° C. Media and sera were obtained from Life Technologies (Rockville, Md.).
as §1, §2, §3

[2] = ARPE-19, mean over sulforaphane 0-2.5 μM

`O=NOO` [Peroxynitrite, reference compound] was tested, and the “mean slope m for peroxynitrite” value (ARPE-19 cells; [2]) was 6.29, the “m (slope of median effect plot) for peroxynitrite” value (ARPE-19 cells; ARPE-19, peroxynitrite (from SIN-1) 2 h, sulforaphane 0.00 μM) was 6.07 and the EC50 (ARPE-19 cells; ARPE-19, 2 h, ARPE-19, peroxynitrite (from SIN-1) 2 h, sulforaphane 0.00 μM, read-out: Dm (median effect concentration) of peroxynitrite) was 1440 µM.
`CC1=C(/C=C/C(C)=C/C=C/C(C)=C/C=O)C(C)(C)CCC1` [All-trans-Retinal, all-trans-retinal, reference compound] showed a Survival ([1]; 365 nm light, all-trans-retinal 12.5 μM) of 83.6%, a Survival ([1]; 365 nm light, all-trans-retinal 25 μM) of 41.9% and a Survival ([1]; 365 nm light, all-trans-retinal 50 μM) of 9.4%. For the same compound, the Survival ([1]; 365 nm light, all-trans-retinal 100 μM) was 3.1%, the Survival ([1]; in dark, all-trans-retinal 12.5 μM) was 96.3% and the Survival ([1]; in dark, all-trans-retinal 25 μM) was 97.6%. For the same compound, the Survival ([1]; in dark, all-trans-retinal 50 μM) was 96.8% and the Survival ([1]; in dark, all-trans-retinal 100 μM) was 75.0%.
For `CCCCCC(O)C=CC=O` (centres unmarked) [4-hydroxynonenal, 4-Hydroxynon-2-enal, reference compound], the “m (slope of median effect plot) for 4-hydroxynonenal” value (ARPE-19 cells; ARPE-19, 4-hydroxynonenal 4 h, sulforaphane 0.00 μM) was 2.85, the “mean slope m for 4-hydroxynonenal” value (ARPE-19 cells; [2]) was 2.66 and the EC50 (ARPE-19 cells; ARPE-19, 4 h, ARPE-19, 4-hydroxynonenal 4 h, sulforaphane 0.00 μM, read-out: Dm (median effect concentration) of 4-hydroxynonenal) was 8.7 µM.
For `CC(C)(C)OO` [tert-Butyl hydroperoxide, Tert-Butyl hydroperoxide, reference compound], the “mean slope m for tert-butyl hydroperoxide” value (ARPE-19 cells; [2]) was 1.93, the “m (slope of median effect plot) for tert-butyl hydroperoxide” value (ARPE-19 cells; ARPE-19, tert-butyl hydroperoxide 16 h, sulforaphane 0.00 μM) was 2.52 and the EC50 (ARPE-19 cells; ARPE-19, 16 h, read-out: Dm (median effect concentration) of tert-butyl hydroperoxide) was 95.8 µM. For the same compound, the EC50 (HaCaT cells; Homo sapiens, 8 h, read-out: Dm (median effect concentration) of tert-butyl hydroperoxide) was 63.5 µM, the “slopes of the median effect plots for tert-butyl hydroperoxide” value (HaCaT cells; over the sulforaphane concentrations) was 0.8-1.2 and the “m (slope of median effect plot) for tert-butyl hydroperoxide” value (HaCaT cells; tert-butyl hydroperoxide 8 h, sulforaphane 0.00 μM) was 0.899.
